# According to ChEMBL document CHEMBL3792360, “Antibacterial activity of Mannich bases derived from 2-naphthols, aromatic aldehydes and secondary aliphatic amines” (2016):
# Legend:
# Type in all cases: functional
# [1] = system: Escherichia coli; experiment: Antibacterial activity against Escherichia coli ATCC 25922 after 16 to 20 hrs by broth microdilution method
# [2] = system: Escherichia coli; experiment: Antibacterial activity against Escherichia coli ATCC 35218 after 16 to 20 hrs by broth microdilution method
# [3] = system: Staphylococcus aureus; experiment: Antibacterial activity against methicillin-resistant Staphylococcus aureus ATCC 43300 after 16 to 20 hrs by broth microdilution method
# [4] = system: Staphylococcus aureus; experiment: Antibacterial activity against Staphylococcus aureus […] after 16 to 20 hrs by broth microdilution method
# [5] = system: Pseudomonas aeruginosa; experiment: Antibacterial activity against Pseudomonas aeruginosa CIP 82118 after 16 to 20 hrs by broth microdilution method
# [6] = system: Enterobacter cloacae; experiment: Antibacterial activity against Enterobacter cloacae CIP 103475 after 16 to 20 hrs by broth microdilution method
# [7] = system: Proteus vulgaris; experiment: Antibacterial activity against Proteus vulgaris CIP 104989 after 16 to 20 hrs by broth microdilution method
# [8] = system: Citrobacter freundii; experiment: Antibacterial activity against Citrobacter freundii CIP 5732 after 16 to 20 hrs by broth microdilution method
# [9] = system: Klebsiella pneumoniae; experiment: Antibacterial activity against Klebsiella pneumoniae CIP 53153 after 16 to 20 hrs by broth microdilution method
# [10] = system: Enterococcus faecalis; experiment: Antibacterial activity against Enterococcus faecalis ATCC 25912 after 16 to 20 hrs by broth microdilution method
SMILES,MIC [1] [µg/mL],MIC [2] [µg/mL],MIC [3] [µg/mL],MIC [4] [µg/mL],MIC [5] [µg/mL],MIC [6] [µg/mL],MIC [7] [µg/mL],MIC [8] [µg/mL],MIC [9] [µg/mL],MIC [10] [µg/mL]
COc1ccc2ccc(O)c(C(c3cccc4ccccc34)N3CCCCC3)c2c1 (stereo not given),> 512,> 512,> 512,> 512,> 512,> 512,> 512,> 512,> 512,> 512
Oc1ccc2ccccc2c1C(c1ccc(Br)s1)N1CCCCC1 (stereo not given),> 512,> 512,16,8,> 512,> 512,> 512,> 512,> 512,16
Cc1cc(C)cc(C(c2c(O)ccc3ccccc23)N2CCC(C)CC2)c1 (stereo not given),> 512,> 512,> 512,> 512,> 512,> 512,> 512,> 512,> 512,> 512
COc1ccc2ccc(O)c(C(c3cccs3)N3CCCCC3)c2c1 (stereo not given),> 512,> 512,16,16,> 512,> 512,> 512,> 512,> 512,32
COc1ccc2ccc(O)c(C(c3cccc4ccccc34)N3CCC(C)CC3)c2c1 (stereo not given),> 512,> 512,> 512,> 512,> 512,> 512,> 512,> 512,> 512,> 512
Oc1ccc2cc(Br)ccc2c1C(c1cccs1)N1CCCCC1 (stereo not given),> 512,> 512,8,8,> 512,> 512,> 512,> 512,> 512,16
Oc1ccc2ccccc2c1C(c1cccs1)N1CCCCC1 (stereo not given),> 512,> 512,8,16,> 512,> 512,> 512,> 512,> 512,32
Oc1ccc2ccccc2c1C(c1cccs1)N1CCCC1 (stereo not given),> 512,> 512,32,32,> 512,> 512,> 512,> 512,> 512,32
CC1CCN(C(c2ccc(F)cc2)c2c(O)ccc3ccccc23)CC1 (stereo not given),> 512,> 512,> 512,> 512,> 512,> 512,> 512,> 512,> 512,> 512
COc1ccc2ccc(O)c(C(c3ccccn3)N3CCC(C)CC3)c2c1 (stereo not given),> 512,> 512,> 512,> 512,> 512,> 512,> 512,> 512,> 512,> 512
CC1CCN(C(c2cccc(Cl)c2)c2c(O)ccc3cc(Br)ccc23)CC1 (stereo not given),> 512,> 512,> 512,> 512,> 512,> 512,> 512,> 512,> 512,> 512
CC1CCN(C(c2ccc(Br)s2)c2c(O)ccc3ccccc23)CC1 (stereo not given),> 512,> 512,16,8,> 512,> 512,> 512,> 512,> 512,16
CC1CCN(C(c2cccs2)c2c(O)ccc3ccccc23)CC1 (stereo not given),> 512,> 512,8,8,> 512,> 512,> 512,> 512,> 512,16
Oc1ccc2ccccc2c1C(c1cccc2ccccc12)N1CCCCC1 (stereo not given),> 512,> 512,> 512,> 512,> 512,> 512,> 512,> 512,> 512,> 512
CN1CCN(C(c2cccs2)c2c(O)ccc3ccccc23)CC1 (stereo not given),> 512,> 512,32,32,> 512,> 512,> 512,> 512,> 512,32
